In US11633421B2, “Use of NAD precursors for improving maternal health and/or offspring health” (UNIVERSITY OF IOWA RESEARCH FOUNDATION, priority 2016, dated 2023):

Columns and labels:
Format in all cases: in vivo, mice
[1] = Milk production, oxytocin-induced milk collection (Example 1); settings: collected volume per mother after oxytocin, days 0, 7, 14 and 21 after partum; NC+NR vs NC
Procedure: Female C57BL/6N mice were raised in 12 hour light:dark cycles on Teklad 2920X chow (NC). For 12 weeks prior to mating with a single C57BL/6N male, females were on either NC (n=4) or NC+NR (n=4). Females were maintained on the same diet through gestation and weaning, which was at 21 days after birth.
To determine the production of milk, we separated mothers were separated from pups for several hours and provided an injection of oxytocin on days 0, 7, 14 and 21 after partum. Milk was carefully collected by pipetting and the collected volume per mother was plotted. The galactogogue activity of NR was striking and entirely unexpected.

[2] = test system: lipid biosynthetic genes and lactose biosynthetic genes; assay: Mammary lipid and lactose biosynthetic gene expression; settings: NR in the diet
Description: FIGS. 13A-D. NR boosts prolactin circulation and mammary biosynthetic pathways for protein, fat and carbohydrate. FIG. 13A. Prolactin levels in plasma from dam on NC or NR chow. FIG. 13B. mTOR pathway is activated in NR-supplemented mammary tissue. FIG. 13C. Genes involved in lipid biosynthesis are activated in NR-supplemented mammary tissue. FIG. 13D. Genes involved in lactose synthesis pathway are activated in NR-supplemented mammary tissue. […] In addition, the size of the mammary tissue itself is greater in NR-supplemented mothers than in non-supplemented mothers (FIG. 14A).

[3] = test system: brain derived neurotrophic factor (BDNF); assay: BDNF in milk; settings: NR-supplemented mothers
Procedure: FIG. 10. NR supplemented mothers produce milk with higher brain-derived neurotrophic factor. Milk from NC and NR mothers was tested. […] Based on the advanced brain and neurobehavioral development that was observed, it was investigated whether NR-supplemented mothers produced more BDNF in their milk.

[4] = Pup post-fasting glucose and hepatic glycogen (post-partum maternal NR)
Description: (§1) FIGS. 17A-C. 22 day old pups of NR-supplemented mothers have improved post-fasting glucose homoeostasis with higher gluconeogenic gene expression and higher hepatic glycogen storage. Not only are the offspring of NR-supplemented mothers a bit bigger, they also have better glycemic control. This is due to better gluconeogenic gene expression and higher glycogen storage. The order of the bars from left to right are: males of normal chow (NC) mothers (white with light grey outline), followed by males of NR-supplemented mothers (filled light grey), followed by females of NC mothers (white with dark grey outline), followed by females of NR-supplemented mothers (filled dark grey). Earlier it was shown that supplementation of females during their pregnancy and during the lactation period with NR produced pups with better glycemic control. […] Particularly as NR is not directly transmitted to offspring of NR-supplemented mothers, none of these effects of maternally supplemented NR could have been anticipated.

PEPCK = assay: Pup liver gluconeogenic gene expression; settings: males and females whose mothers were NR-supplemented
Description: as §1

[5] = test system: NAD biosynthetic genes in the mammary glands; assay: Mammary NAD biosynthetic gene expression and NAD metabolites
Description: FIGS. 12A-D. Lactation and NR boost the mammary NAD program. FIG. 12A. NR promotes expression of NAD biosynthetic genes in the mammary glands. FIG. 12B. […] FIG. 12C. Lactation boosts NMN in mammary. FIG. 12D. Lactation and NR boost mammary NR in an additive manner. […] As shown in FIGS. 12B-12C, maternal NAD and NMN are elevated in the mammary of lactating mammary with respect to nonlactating mammary tissue.

[6] = Elevated plus maze test of offspring; settings: 85 day old adult offspring; males reached statistical significance
Description: Males are not afraid to “stick their head out”. The order of the bars from left to right are: males of normal chow (NC) mothers (white with light grey outline), followed by males of NR-supplemented mothers (filled light grey), followed by females of NC mothers (white with dark grey outline), followed by females of NR-supplemented mothers (filled dark grey). At 64 days past the mother's intervention, the willingness of 85 day old adult offspring of mice from this experiment (NC or NR-supplemented) to put their heads out in an elevated plus maze was tested. […] The clear indication is that maternal NR produces improvements in maternal behavior and/or qualitative and/or quantitative improvements in lactation sufficient to improve the development and health of offspring. The ability of the mother's 21 day micronutrition to produce beneficial effects on her offspring into adulthood was not at all anticipated.

What does the source list for `NC(=O)c1ccc[n+]([C@@H]2O[C@H](CO)[C@@H](O)[C@H]2O)c1` [NR, nicotinamide riboside]?
increase in milk production [1]: 2-3 x; mammary lactose biosynthetic genes [2]: strongly induced; mammary lipid biosynthetic genes [2]: strongly induced; concentration of BDNF in the milk vs non-supplemented mothers [3]: 2 fold; post-fasting glucose homoeostasis of pups ([4]; 22 day old pups of NR-supplemented mothers): improved; glycogen stored in liver ([4]; males and females whose mothers were NR-supplemented): stored more glycogen; liver expression of the gluconeogenic bypass gene PEPCK (PEPCK): higher; mammary NR ([5]; lactating female mouse, above level in lactating female): large increase; mammary NAD+ levels ([5]; lactating mammary gland, NR supplementation): tends to further increase; expression of NAD biosynthetic genes in lactating mammary ([5]; mother supplemented with NR): very high level of expression; willingness to put heads out in an elevated plus maze [6]: higher willingness
